{"source": "ChEMBL document CHEMBL4665648", "about": "“Potent and selective inhibitors of receptor-interacting protein kinase 1 that lack an aromatic back pocket group” (Bioorg Med Chem Lett, 2019)", "key": {"[1]": {"assay": "Inhibition of necroptosis in mouse L929 cells assessed as reduction in TNFalpha/BV6/zVAD-fmk-induced cell death incubated for 18 hrs by Cell Titer Glo luminescent cell viability assay", "type": "functional, cell-based", "settings": "L929, 18 h"}, "[2]": {"assay": "Volume of distribution in Sprague-Dawley rat at 0.5 mg/kg, iv or 2 mg/kg, po", "type": "ADME, organism-based", "settings": "in vivo"}, "[3]": {"biological_target": "Cyclin-dependent kinase 5/CDK5 activator 1 (Homo sapiens) (UniProt Q00535+Q15078)", "sequence (Q00535 whole entry)": "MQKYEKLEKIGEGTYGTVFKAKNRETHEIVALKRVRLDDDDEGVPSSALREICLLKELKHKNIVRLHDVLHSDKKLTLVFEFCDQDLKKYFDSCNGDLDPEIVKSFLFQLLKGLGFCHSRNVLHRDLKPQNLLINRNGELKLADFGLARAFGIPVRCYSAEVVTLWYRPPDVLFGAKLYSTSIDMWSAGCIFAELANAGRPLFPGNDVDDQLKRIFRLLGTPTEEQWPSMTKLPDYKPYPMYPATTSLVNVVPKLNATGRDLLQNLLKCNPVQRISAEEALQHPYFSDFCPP", "sequence (Q15078 99-307 partner limits assumed)": "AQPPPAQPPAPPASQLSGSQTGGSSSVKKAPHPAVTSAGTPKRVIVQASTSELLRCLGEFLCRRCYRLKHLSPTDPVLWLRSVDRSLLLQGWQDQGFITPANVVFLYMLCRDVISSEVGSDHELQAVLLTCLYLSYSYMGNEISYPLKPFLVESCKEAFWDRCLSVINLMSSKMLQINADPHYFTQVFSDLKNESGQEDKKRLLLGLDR", "assay": "Inhibition of recombinant human His/GST-tagged full length CDK5/p25 expressed in baculovirus expression system using Ser/Thr 12 as substrate at 10 uM incubated for 60 mins by Z'-Lyte assay relative to control"}, "[4]": {"biological_target": "Cyclin-dependent kinase 7/ cyclin H (Homo sapiens) (UniProt P51946+P50613)", "assay": "Inhibition of recombinant human His-tagged full length CDK7/Cyclin H expressed in baculovirus expression system using CDK7/9tide as substrate at 10 uM incubated for 60 mins by Adapta assay relative to control"}, "[5]": {"biological_target": "Casein kinase I isoform epsilon (Homo sapiens) (UniProt P49674)", "assay": "Inhibition of recombinant human His-tagged full length CK1epsilon expressed in baculovirus expression system using Ser/Thr 11 as substrate at 10 uM incubated for 60 mins by Z'-Lyte assay relative to control"}, "[6]": {"biological_target": "Dual specificity protein kinase CLK1 (Homo sapiens) (UniProt P49759)", "assay": "Inhibition of recombinant human GST-tagged CLK1 (129 to 484 residues) expressed in Escherichia coli expression system using Ser/Thr 09 as substrate at 10 uM incubated for 60 mins by Z'-Lyte assay relative to control"}, "[7]": {"biological_target": "Dual specificity protein kinase CLK2 (Homo sapiens) (UniProt P49760)", "assay": "Inhibition of recombinant human GST-tagged CLK2 (137 to 498 residues) expressed in baculovirus expression system using Ser/Thr 06 as substrate at 10 uM incubated for 60 mins by Z'-Lyte assay relative to control"}, "[8]": {"biological_target": "Tyrosine-protein kinase CSK (Homo sapiens) (UniProt P41240)", "sequence (P41240 2-450 limits assumed)": "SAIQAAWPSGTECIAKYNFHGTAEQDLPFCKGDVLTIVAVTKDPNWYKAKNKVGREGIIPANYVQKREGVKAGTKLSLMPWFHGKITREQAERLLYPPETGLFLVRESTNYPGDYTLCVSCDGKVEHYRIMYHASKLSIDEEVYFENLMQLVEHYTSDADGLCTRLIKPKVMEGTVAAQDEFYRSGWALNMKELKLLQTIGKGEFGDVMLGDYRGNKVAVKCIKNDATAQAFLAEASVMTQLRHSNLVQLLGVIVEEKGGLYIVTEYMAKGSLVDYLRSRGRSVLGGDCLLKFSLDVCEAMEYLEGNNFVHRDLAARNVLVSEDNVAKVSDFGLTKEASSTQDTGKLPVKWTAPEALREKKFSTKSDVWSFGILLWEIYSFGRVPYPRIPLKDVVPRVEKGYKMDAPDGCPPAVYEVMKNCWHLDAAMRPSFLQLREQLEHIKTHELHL", "assay": "Inhibition of recombinant human GST-tagged full length CSK expressed in Escherichia coli expression system using Tyr 02 as substrate at 10 uM incubated for 60 mins by Z'-Lyte assay relative to control"}, "[9]": {"biological_target": "Ephrin type-A receptor 8 (Homo sapiens) (UniProt P29322)", "assay": "Inhibition of recombinant human GST-tagged EPHA8 (565 to 1005 residues) expressed in baculovirus expression system using Tyr 02 as substrate at 10 uM incubated for 60 mins by Z'-Lyte assay relative to control"}, "[10]": {"biological_target": "Receptor tyrosine-protein kinase erbB-4 (Homo sapiens) (UniProt Q15303)", "assay": "Inhibition of recombinant human N-terminal GST-tagged ERBB4 (708 to 993 residues) expressed in baculovirus expression system using Tyr 01 as substrate at 10 uM incubated for 60 mins by Z'-Lyte assay relative to control"}, "[11]": {"biological_target": "Beta-adrenergic receptor kinase 1 (Homo sapiens) (UniProt P25098)", "assay": "Inhibition of recombinant human His-tagged full length GRK2 expressed in baculovirus expression system using Ser/Thr 16 as substrate at 10 uM incubated for 60 mins by Z'-Lyte assay relative to control"}, "[12]": {"biological_target": "Homeodomain-interacting protein kinase 2 (Homo sapiens) (UniProt Q9H2X6)", "assay": "Inhibition of recombinant human N-terminal GST-tagged HIPK2 expressed in baculovirus expression system using Ser/Thr 09 as substrate at 10 uM incubated for 60 mins by Z'-Lyte assay relative to control"}, "[13]": {"biological_target": "Insulin-like growth factor 1 receptor (Homo sapiens) (UniProt P08069)", "sequence (P08069 31-736 limits assumed)": "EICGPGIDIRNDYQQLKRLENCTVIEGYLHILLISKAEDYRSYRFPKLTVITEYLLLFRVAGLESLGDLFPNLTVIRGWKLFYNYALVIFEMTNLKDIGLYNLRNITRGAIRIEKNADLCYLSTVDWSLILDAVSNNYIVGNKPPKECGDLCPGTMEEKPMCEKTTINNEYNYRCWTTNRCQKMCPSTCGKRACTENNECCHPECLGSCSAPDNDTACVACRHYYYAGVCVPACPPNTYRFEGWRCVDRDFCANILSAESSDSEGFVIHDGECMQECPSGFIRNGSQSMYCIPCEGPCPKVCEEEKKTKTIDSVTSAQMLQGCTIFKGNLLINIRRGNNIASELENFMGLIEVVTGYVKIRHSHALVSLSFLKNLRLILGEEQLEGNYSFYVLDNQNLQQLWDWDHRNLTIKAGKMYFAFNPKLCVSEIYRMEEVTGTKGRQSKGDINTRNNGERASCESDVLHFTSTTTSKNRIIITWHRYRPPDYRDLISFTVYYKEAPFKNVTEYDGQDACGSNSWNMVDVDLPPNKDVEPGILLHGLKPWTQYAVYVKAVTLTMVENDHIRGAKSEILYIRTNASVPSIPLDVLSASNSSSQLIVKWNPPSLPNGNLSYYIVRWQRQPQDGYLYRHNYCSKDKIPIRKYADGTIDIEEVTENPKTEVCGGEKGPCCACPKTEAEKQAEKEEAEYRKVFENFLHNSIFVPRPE", "sequence (P08069 741-1367 limits assumed)": "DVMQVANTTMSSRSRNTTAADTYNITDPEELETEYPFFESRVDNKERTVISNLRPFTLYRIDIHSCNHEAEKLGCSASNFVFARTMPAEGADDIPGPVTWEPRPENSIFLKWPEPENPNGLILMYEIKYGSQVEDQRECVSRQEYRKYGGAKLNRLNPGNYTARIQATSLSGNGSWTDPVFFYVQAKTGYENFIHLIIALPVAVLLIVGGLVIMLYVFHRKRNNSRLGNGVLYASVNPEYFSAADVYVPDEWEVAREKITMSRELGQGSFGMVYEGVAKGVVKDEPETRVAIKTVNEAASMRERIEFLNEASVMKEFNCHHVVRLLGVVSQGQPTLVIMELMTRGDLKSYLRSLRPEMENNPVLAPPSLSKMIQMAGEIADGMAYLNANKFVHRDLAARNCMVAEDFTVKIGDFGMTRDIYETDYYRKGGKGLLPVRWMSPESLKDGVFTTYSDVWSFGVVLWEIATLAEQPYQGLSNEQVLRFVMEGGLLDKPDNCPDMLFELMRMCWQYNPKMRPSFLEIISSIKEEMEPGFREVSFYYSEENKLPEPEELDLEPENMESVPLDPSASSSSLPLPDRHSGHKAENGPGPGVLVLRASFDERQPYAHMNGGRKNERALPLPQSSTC", "assay": "Inhibition of recombinant human His-tagged IGF1R (960 to 1397 residues) expressed in baculovirus expression system using Tyr 01 as substrate at 10 uM incubated for 60 mins by Z'-Lyte assay relative to control"}, "[14]": {"biological_target": "Inhibitor of nuclear factor kappa-B kinase subunit epsilon (Homo sapiens) (UniProt Q14164)", "assay": "Inhibition of recombinant human GST-tagged full length IKKepsilon expressed in baculovirus expression system using Ser/Thr 11 as substrate at 10 uM incubated for 60 mins by Z'-lyte assay relative to control"}, "[15]": {"biological_target": "Mitogen-activated protein kinase 9 (Homo sapiens) (UniProt P45984)", "assay": "Inhibition of recombinant human His-tagged full length JNK2 expressed in baculovirus expression system using Ser/Thr 04 as substrate at 10 uM incubated for 60 mins by Z'-lyte assay relative to control"}, "[16]": {"biological_target": "Serine/threonine-protein kinase 3 (Homo sapiens) (UniProt Q13188)", "assay": "Inhibition of recombinant human GST-tagged full length MST2 expressed in baculovirus expression system using Ser/Thr 07 as substrate at 10 uM incubated for 60 mins by Z'-lyte assay relative to control"}, "[17]": {"biological_target": "Serine/threonine-protein kinase Nek4 (Homo sapiens) (UniProt P51957)", "assay": "Inhibition of recombinant human GST-tagged full length NEK4 expressed in baculovirus expression system using Ser/Thr 17 as substrate at 10 uM incubated for 60 mins by Z'-lyte assay relative to control"}, "[18]": {"biological_target": "Protein kinase C epsilon type (Homo sapiens) (UniProt Q02156)", "assay": "Inhibition of recombinant human GST-tagged full length PKCepsilon expressed in insect expression system using Ser/Thr 07 as substrate at 10 uM incubated for 60 mins by Z'-lyte assay relative to control"}, "[19]": {"biological_target": "Proto-oncogene tyrosine-protein kinase ROS (Homo sapiens) (UniProt P08922)", "sequence (P08922 whole entry, the tested form may be a part)": "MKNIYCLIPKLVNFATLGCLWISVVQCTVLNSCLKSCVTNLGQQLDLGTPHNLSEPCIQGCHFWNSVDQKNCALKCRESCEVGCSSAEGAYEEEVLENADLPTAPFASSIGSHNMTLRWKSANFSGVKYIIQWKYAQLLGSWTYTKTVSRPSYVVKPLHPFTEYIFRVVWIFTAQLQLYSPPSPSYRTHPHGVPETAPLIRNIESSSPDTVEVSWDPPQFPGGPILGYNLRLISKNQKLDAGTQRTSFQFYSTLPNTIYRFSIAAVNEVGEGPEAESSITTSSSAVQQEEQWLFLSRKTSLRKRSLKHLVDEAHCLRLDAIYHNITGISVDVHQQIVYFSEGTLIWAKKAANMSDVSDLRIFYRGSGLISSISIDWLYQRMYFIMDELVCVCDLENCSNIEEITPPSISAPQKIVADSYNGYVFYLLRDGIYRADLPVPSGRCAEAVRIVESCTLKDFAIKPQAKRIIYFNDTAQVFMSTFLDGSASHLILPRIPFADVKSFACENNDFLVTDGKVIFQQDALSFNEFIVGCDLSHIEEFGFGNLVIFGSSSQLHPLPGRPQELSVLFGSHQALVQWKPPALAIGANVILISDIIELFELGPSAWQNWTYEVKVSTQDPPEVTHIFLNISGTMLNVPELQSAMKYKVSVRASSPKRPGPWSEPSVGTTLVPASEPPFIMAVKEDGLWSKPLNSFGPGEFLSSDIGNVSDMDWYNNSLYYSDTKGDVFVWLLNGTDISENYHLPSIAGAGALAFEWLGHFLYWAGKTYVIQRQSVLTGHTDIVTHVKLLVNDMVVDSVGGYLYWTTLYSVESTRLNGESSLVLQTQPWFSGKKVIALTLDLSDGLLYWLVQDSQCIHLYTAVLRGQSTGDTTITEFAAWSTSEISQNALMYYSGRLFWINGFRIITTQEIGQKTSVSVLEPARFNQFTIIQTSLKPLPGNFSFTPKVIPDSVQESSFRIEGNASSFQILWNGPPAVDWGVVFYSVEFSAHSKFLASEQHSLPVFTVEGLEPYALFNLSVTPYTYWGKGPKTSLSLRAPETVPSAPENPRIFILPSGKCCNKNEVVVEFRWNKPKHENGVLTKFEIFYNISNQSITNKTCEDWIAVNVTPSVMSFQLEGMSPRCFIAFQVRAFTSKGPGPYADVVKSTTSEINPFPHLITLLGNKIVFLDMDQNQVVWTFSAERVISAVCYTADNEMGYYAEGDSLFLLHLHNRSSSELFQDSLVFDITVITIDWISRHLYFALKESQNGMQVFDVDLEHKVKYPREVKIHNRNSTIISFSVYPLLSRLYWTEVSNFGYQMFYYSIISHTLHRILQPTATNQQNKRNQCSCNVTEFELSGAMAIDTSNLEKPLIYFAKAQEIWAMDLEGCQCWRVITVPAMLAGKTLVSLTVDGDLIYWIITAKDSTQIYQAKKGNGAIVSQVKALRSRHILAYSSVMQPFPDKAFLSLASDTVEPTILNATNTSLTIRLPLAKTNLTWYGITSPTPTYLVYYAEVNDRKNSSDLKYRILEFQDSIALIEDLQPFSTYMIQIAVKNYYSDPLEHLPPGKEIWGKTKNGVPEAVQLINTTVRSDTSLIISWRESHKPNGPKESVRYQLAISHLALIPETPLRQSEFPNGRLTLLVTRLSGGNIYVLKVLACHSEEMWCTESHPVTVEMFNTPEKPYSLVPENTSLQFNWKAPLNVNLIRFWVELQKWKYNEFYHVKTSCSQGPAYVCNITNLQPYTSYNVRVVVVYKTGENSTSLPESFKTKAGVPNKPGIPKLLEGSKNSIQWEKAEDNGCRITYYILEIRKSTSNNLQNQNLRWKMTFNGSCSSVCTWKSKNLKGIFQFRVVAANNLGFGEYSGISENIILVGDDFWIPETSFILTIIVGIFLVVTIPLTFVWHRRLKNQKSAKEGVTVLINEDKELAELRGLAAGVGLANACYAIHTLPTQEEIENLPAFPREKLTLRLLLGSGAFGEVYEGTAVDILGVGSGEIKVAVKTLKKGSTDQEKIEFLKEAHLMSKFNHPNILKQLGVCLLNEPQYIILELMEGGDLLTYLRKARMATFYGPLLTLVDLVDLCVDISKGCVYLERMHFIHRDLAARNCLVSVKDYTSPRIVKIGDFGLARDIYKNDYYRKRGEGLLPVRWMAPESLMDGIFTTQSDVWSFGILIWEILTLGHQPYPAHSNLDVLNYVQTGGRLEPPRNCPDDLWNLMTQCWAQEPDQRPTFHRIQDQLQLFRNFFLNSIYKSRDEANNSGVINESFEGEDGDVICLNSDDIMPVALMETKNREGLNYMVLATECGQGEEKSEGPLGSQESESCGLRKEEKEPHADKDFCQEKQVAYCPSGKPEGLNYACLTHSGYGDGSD", "assay": "Inhibition of recombinant human GST-tagged full length ROS1 (1883 to 2347 residues) expressed in baculovirus expression system using Tyr 01 as substrate at 10 uM incubated for 60 mins by Z'-Lyte assay relative to control"}, "[20]": {"biological_target": "Serine/threonine-protein kinase Sgk2 (Homo sapiens) (UniProt Q9HBY8)", "sequence (Q9HBY8 whole entry, the tested form may be a part)": "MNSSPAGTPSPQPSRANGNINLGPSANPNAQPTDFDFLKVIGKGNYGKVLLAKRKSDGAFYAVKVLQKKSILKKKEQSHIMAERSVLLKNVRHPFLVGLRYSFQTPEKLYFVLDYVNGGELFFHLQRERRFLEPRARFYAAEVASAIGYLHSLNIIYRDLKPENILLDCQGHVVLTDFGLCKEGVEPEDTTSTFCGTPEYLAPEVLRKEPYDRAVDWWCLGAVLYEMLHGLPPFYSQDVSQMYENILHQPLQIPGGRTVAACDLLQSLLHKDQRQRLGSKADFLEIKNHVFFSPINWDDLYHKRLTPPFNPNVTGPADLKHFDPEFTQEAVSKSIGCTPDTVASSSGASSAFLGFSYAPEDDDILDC", "assay": "Inhibition of recombinant human GST-tagged full length SGK2 (54 to 427 residues) expressed in baculovirus expression system using Ser/Thr 06 as substrate at 10 uM incubated for 60 mins by Z'-Lyte assay relative to control"}, "[21]": {"biological_target": "Proto-oncogene tyrosine-protein kinase Src (Homo sapiens) (UniProt P12931)", "assay": "Inhibition of recombinant human C-terminal His-tagged full length SRC expressed in baculovirus expression system using Tyr 02 as substrate at 10 uM incubated for 60 mins by Z'-Lyte assay relative to control"}, "[22]": {"biological_target": "Serine/threonine-protein kinase 25 (Homo sapiens) (UniProt O00506)", "assay": "Inhibition of recombinant human GST-tagged full length YSK1 expressed in baculovirus expression system using Ser/Thr 07 as substrate at 10 uM incubated for 60 mins by Z'-Lyte assay relative to control"}, "[23]": {"biological_target": "Tyrosine-protein kinase ZAP-70 (Homo sapiens) (UniProt P43403)", "assay": "Inhibition of recombinant human His-tagged full length ZAP70 expressed in baculovirus expression system using Tyr 07 as substrate at 10 uM incubated for 60 mins by Z'-Lyte assay relative to control"}, "[24]": {"biological_target": "Death-associated protein kinase 3 (Homo sapiens) (UniProt O43293)", "assay": "Inhibition of recombinant human GST-tagged full length ZIPK expressed in baculovirus expression system using Ser/Thr 13 as substrate at 10 uM incubated for 60 mins by Z'-Lyte assay relative to control"}}}
{"smiles": "CN1C(=O)[C@@H](NC(=O)c2n[nH]c3ncc(C(F)(F)C(F)(F)F)cc23)COc2ccccc21", "values": [{"measurement": "EC50", "setting": "[1]", "value": 11, "unit": "µM"}, {"measurement": "Vd", "setting": "[2]", "value": 2.8, "unit": "L/kg"}, {"measurement": "inhibition", "setting": "[3]", "value": 14.5, "unit": "%"}, {"measurement": "inhibition", "setting": "[4]", "value": 14.5, "unit": "%"}, {"measurement": "inhibition", "setting": "[5]", "value": 5, "unit": "%"}, {"measurement": "inhibition", "setting": "[6]", "value": 3.5, "unit": "%"}, {"measurement": "inhibition", "setting": "[7]", "value": 24, "unit": "%"}, {"measurement": "inhibition", "setting": "[8]", "value": 2.5, "unit": "%"}, {"measurement": "inhibition", "setting": "[9]", "value": 0, "unit": "%"}, {"measurement": "inhibition", "setting": "[10]", "value": 9, "unit": "%"}, {"measurement": "inhibition", "setting": "[11]", "value": -0.5, "unit": "%"}, {"measurement": "inhibition", "setting": "[12]", "value": 7, "unit": "%"}, {"measurement": "inhibition", "setting": "[13]", "value": -0.5, "unit": "%"}, {"measurement": "inhibition", "setting": "[14]", "value": 1.5, "unit": "%"}, {"measurement": "inhibition", "setting": "[15]", "value": 0.5, "unit": "%"}, {"measurement": "inhibition", "setting": "[16]", "value": 1.5, "unit": "%"}, {"measurement": "inhibition", "setting": "[17]", "value": 3.5, "unit": "%"}, {"measurement": "inhibition", "setting": "[18]", "value": -6, "unit": "%"}, {"measurement": "inhibition", "setting": "[19]", "value": -4, "unit": "%"}, {"measurement": "inhibition", "setting": "[20]", "value": 4, "unit": "%"}, {"measurement": "inhibition", "setting": "[21]", "value": 2, "unit": "%"}, {"measurement": "inhibition", "setting": "[22]", "value": 7, "unit": "%"}, {"measurement": "inhibition", "setting": "[23]", "value": -2, "unit": "%"}, {"measurement": "inhibition", "setting": "[24]", "value": 7, "unit": "%"}]}
